Assay results: patent publication US4091006A, “Esters of 3-hydroxyindone compounds” (priority 1975, dated 1978)

How the values were obtained:
[1] = tested on: adults and nymphal stages of the two-spotted mite; assay: Mite Foliage Spray Test; format: in vivo, Tetranychus urticae (Koch); design: key: 1: no mortality; 3: an approximately 50% mortality; 5: 100% mortality; details: 4 days
From the text: (§1) The test procedures were as follows:
(§2) Compositions were rated on the basis of percent kill with a rating of 1 indicating no mortality; 3 signifying an approximately 50% mortality and 5 indicating 100% mortality at the indicated dosage.

[2] = tested on: Perennial rye grass, crabgrass, red root pigweed, mustard; assay: Preliminary Herbicide Seed Germination Test; details: each rated 1 (no injury) to 5 (no seedlings emerged)
From the text: The thus-prepared stock suspension contained 0.5 percent by weight of compound. The test concentrations employed in the tests described hereinbelow were obtained by diluting the stock suspension with water. The test procedures were as follows:
The following seeds were used in this test:
Crabgrass -- Digitaria san-
Mustard -- Brassica pincea var.
Each of above mixtures is rolled separately in 5 gallon containers for approximately one-half hour on ball mill to insure uniform mixing of seeds and soil. For each compound four 3-inch pots are filled with soil to within 11/2 inches of top of pots. To 2 of these pots are added 70 cc. of Mixture I. To the remaining 2 pots are added 70 cc. of Mixture II. The seed-soil mixture is tamped firmly, and the pots are removed to the greenhouse and watered lightly. About 2 hours after planting, 25 milliliters of the test formulation were added to each of 2 pots for each soil-seed mixture; i.e., one replicate of each seed mixture per concentration. An equal volume of a water solution containing acetone and an emulsifier in the same concentration as the herbicidal mixture but without the candidate herbicide is also added to each of the soil-seed mixtures. These pots are used as check or control units. The test compounds are formulated by standard procedure of solution in acetone, addition of an emulsifier, and dilution with water. Tests were conducted on all compositions at low concentration (100 ppm.). Certain compositions were also tested at high concentration (1000 ppm). The pots were held in the greenhouse and watered lightly until results were taken. Ten to twelve days after application of chemical, injury is noted for each species by comparing treated vs. untreated pots. Ratings are made at both the high and the low concentrations (1000 ppm and 100 ppm) according to the following designations:
4 = few seedlings emerged and/or very severe stunting
3 = moderate reduction in stand and/or moderate stunting
2 = very slight reduction in stand and/or slight stunting
1 = no injury; seedlings appear no different with respect to stand or growth than untreated controls
Accordingly, the maximum rating for one test seed species tested at both high and low concentration is 10 and the maximum possible total preemergence rating is 40 (10 for each of the four test seed species). […] In some tests the crabgrass experiment was omitted. In these tests the maximum total rating for species tested at both high and low concentrations is 30 and 15 for species tested only at low concentrations.

[3] = tested on: egg of the two-spotted mite; assay: Mite Ovicide Test; format: in vivo, Tetranychus urticae (Koch); design: key to Mite Ova rating: 1: no mortality; 3: an approximately 50% mortality; 5: 100% mortality; details: spray on eggs, 4 days
From the text: as §1
The plants were allowed to dry thoroughly.
as §2

two-spotted mite = assay: Small scale field tests, mite control on Tendergreen bean plants; format: in vivo, Tetranychus urticae (Koch)
Experimental: Selected enol ester compositions were evaluated in small scale field tests to determine whether the excellent miticidal properties observed in greenhouse testing would be obtained under actual conditions of field use.
In Test I 500 ppm aqueous dispersions were prepared as described above. In tests II and III various dilutions of the test compounds ranging from 125 ppm to 1000 ppm were prepared and used. In each case the test dispersions were applied to a minimum of two replicate test plots measuring five feet in length and containing healthy young Tendergreen bean plants which had previously been infested with two-spotted mite (Tetranychus urticae (Koch)). Dispersions of the test compounds at each concentration level were applied to individual replicate plots using 1/2 gallon garden sprayers equipped with spray nozzles to apply approximately 250 ml. of test solution to each replicate. The effectiveness of the treatment was determined at intervals following application, by microscopic examination of five leaves selected at random from each replicate plot. The degree of effectiveness for each leaf was rated on a scale of from 1 to 5 with 1 indicating no control in reference to a standard sprayed with a mixture of solution less test compound and 5 indicating complete control. The results obtained from inspection of sample leaves were then averaged to give a numerical indication of the degree of control for each compound tested at the concentration applied.

[4] = rating/maximum 40: 100 and 1000 ppm, four species, 10-12 days
[5] = Test I, 500 ppm, 4 days, scale 1 (no control) to 5 (complete control)
[6] = Test I, 500 ppm, 8 days, scale 1 to 5
[7] = rating/maximum 30: 100 and 1000 ppm, crabgrass omitted
[8] = Test II, 250 ppm, 3 days, scale 1 to 5
[9] = Test II, 250 ppm, 7 days, scale 1 to 5
[10] = Test II, 500 ppm, 3 days, scale 1 to 5
[11] = Test II, 500 ppm, 7 days, scale 1 to 5

SMILES: Cc1cc(C)c(C2=C(OC(=O)c3ccccc3Cl)c3ccccc3C2=O)c(C)c1 [3-(2-Chlorobenzoyloxy)-2-(2',4',6'-trimethylphenyl)indone]
- Mite Adult rating [1]: 5 (100% mortality)
- Herbicide (total preemergence rating) [2, 4]: 32/40
- Mite Ova rating [3]: 5 (100% mortality)
- Average mite control rating, 1st Reading (two-spotted mite; [5]): 2.5

SMILES: O=C(OC1=C(c2c(Cl)cccc2Cl)C(=O)c2ccccc21)c1ccccc1Cl [3-(2-chlorobenzoyloxy)-2-(2',6'-dichlorophenyl)indone]
- Mite Adult rating [1]: 5 (100% mortality)
- Herbicide (total preemergence rating) [2, 4]: 30/40
- Mite Ova rating [3]: 5 (100% mortality)
- Average mite control rating, 1st Reading (two-spotted mite; [5]): 3.0
- Average mite control rating, 2nd Reading (two-spotted mite; [6]): 2.5

SMILES: Cc1cc(C)c(C2=C(OC(=O)c3cccc(Cl)c3)c3ccccc3C2=O)c(C)c1 [3-(3-Chlorobenzoyloxy)-2-(2',4',6'-trimethylphenyl)indone]
- Mite Adult rating [1]: 5 (100% mortality)
- Herbicide (total preemergence rating) [2, 4]: 29/40
- Mite Ova rating [3]: 5 (100% mortality)
- Average mite control rating, 1st Reading (two-spotted mite; [5]): 1.5
- Average mite control rating, 2nd Reading (two-spotted mite; [6]): 2.0

SMILES: O=C(OC1=C(c2c(Cl)cccc2Cl)C(=O)c2ccccc21)c1cccc(Cl)c1 [3-(3-Chlorobenzoyloxy)-2-(2',6'-dichlorophenyl)indone]
- Mite Adult rating [1]: 5 (100% mortality)
- Herbicide (total preemergence rating) [2, 4]: 32/40
- Mite Ova rating [3]: 5 (100% mortality)
- Average mite control rating, 1st Reading (two-spotted mite; [5]): 3.0
- Average mite control rating, 2nd Reading (two-spotted mite; [6]): 3.0

SMILES: Cc1cc(C)c(C2=C(OC(=O)c3ccc(Cl)cc3)c3ccccc3C2=O)c(C)c1 [3-(4-Chlorobenzoyloxy)-2-(2',4',6'-trimethylphenyl)indone]
- Mite Adult rating [1]: 5 (100% mortality)
- Herbicide (total preemergence rating) [2, 7]: 24/30
- Mite Ova rating [3]: 5 (100% mortality)

SMILES: O=C(OC1=C(c2c(Cl)cccc2Cl)C(=O)c2ccccc21)c1ccc(Cl)cc1 [3-(4-Chlorobenzoyloxy)-2-(2',6'-dichlorophenyl)indone]
- Mite Adult rating [1]: 5 (100% mortality)
- Herbicide (total preemergence rating) [2, 7]: 23/30
- Mite Ova rating [3]: 5 (100% mortality)

SMILES: COc1ccc(C(=O)OC2=C(c3c(C)cc(C)cc3C)C(=O)c3ccccc32)cc1 [3-(4-Methoxybenzoyloxy)-2-(2',4',6'-trimethylphenyl)indone]
- Mite Adult rating [1]: 3 (an approximately 50% mortality)
- Herbicide (total preemergence rating) [2, 7]: 21/30
- Mite Ova rating [3]: 5 (100% mortality)

SMILES: COc1ccc(C(=O)OC2=C(c3c(Cl)cccc3Cl)C(=O)c3ccccc32)cc1 [3-(4-Methoxybenzoyloxy)-2-(2',6'-dichlorophenyl)indone]
- Mite Adult rating [1]: 5 (100% mortality)
- Herbicide (total preemergence rating) [2, 7]: 22/30
- Mite Ova rating [3]: 5 (100% mortality)

SMILES: Cc1ccc(C(=O)OC2=C(c3c(C)cc(C)cc3C)C(=O)c3ccccc32)cc1 [3-(4-Methylbenzoyloxy)-2-(2',4',6'-trimethylphenyl)indone]
- Mite Adult rating [1]: 5 (100% mortality)
- Herbicide (total preemergence rating) [2, 7]: 22/30
- Mite Ova rating [3]: 5 (100% mortality)

SMILES: Cc1ccc(C(=O)OC2=C(c3c(Cl)cccc3Cl)C(=O)c3ccccc32)cc1 [3-(4-Methylbenzoyloxy)-2-(2',6'-dichlorophenyl)indone]
- Mite Adult rating [1]: 5 (100% mortality)
- Herbicide (total preemergence rating) [2, 7]: 22/30
- Mite Ova rating [3]: 5 (100% mortality)

SMILES: Cc1cc(C)c(C2=C(OC(=O)c3ccc([N+](=O)[O-])cc3)c3ccccc3C2=O)c(C)c1 [3-(4-Nitrobenzoyloxy)-2-(2',4',6'-trimethylphenyl)indone]
- Mite Adult rating [1]: 5 (100% mortality)
- Herbicide (total preemergence rating) [2, 7]: 26/30
- Mite Ova rating [3]: 5 (100% mortality)

SMILES: O=C(OC1=C(c2c(Cl)cccc2Cl)C(=O)c2ccccc21)c1ccc([N+](=O)[O-])cc1 [3-(4-Nitrobenzoyloxy)-2-(2',6'-dichlorophenyl)indone]
- Mite Adult rating [1]: 5 (100% mortality)
- Herbicide (total preemergence rating) [2, 7]: 25/30
- Mite Ova rating [3]: 5 (100% mortality)

SMILES: O=C(OC1=C(c2c(Cl)cccc2Cl)C(=O)c2ccccc21)c1ccccc1 [3-(Benzoyloxy)-2-(2',6'-dichlorophenyl)indone]
- Mite Adult rating [1]: 5 (100% mortality)
- Herbicide (total preemergence rating) [2, 4]: 32/40
- Mite Ova rating [3]: 5 (100% mortality)

SMILES: COc1cc(C)c(C)c(C)c1C1=C(OC(=O)C(C)(C)C)c2ccccc2C1=O [3-(Pivaloyloxy)-2-(6'-methoxy-2',3',4'-trimethylphenyl)indone]
- Mite Adult rating [1]: 1
- Herbicide (total preemergence rating) [2, 4]: 16/40
- Mite Ova rating [3]: 1

SMILES: CC(=O)OC1=C(c2ccccc2Br)C(=O)c2ccccc21 [3-Acetoxy-2-(2'-bromophenyl)indone]
- Mite Adult rating [1]: 5 (100% mortality)
- Herbicide (total preemergence rating) [2, 4]: 19/40
- Mite Ova rating [3]: 5 (100% mortality)

SMILES: Cc1cc(C)c(C2=C(OC(=O)c3ccccc3)c3ccccc3C2=O)c(C)c1 [3-Benzoxyloxy-2-(2',4',6'-trimethylphenyl)indone]
- Mite Adult rating [1]: 5 (100% mortality)
- Herbicide (total preemergence rating) [2, 4]: 31/40
- Mite Ova rating [3]: 5 (100% mortality)

SMILES: Cc1cc(C)c(C2=C(OC(=O)OC3=C(c4c(C)cc(C)cc4C)C(=O)c4ccccc43)c3ccccc3C2=O)c(C)c1 [Bis[2-(2',4',6'-Trimethylphenyl)Indon-3-yl]Carbonate]
- Mite Adult rating [1]: 5 (100% mortality)
- Herbicide (total preemergence rating) ([2]; rating/maximum 20: 100 ppm only, four species): 15/20
- Mite Ova rating [3]: 5 (100% mortality)

SMILES: Cc1cc(C)c(C2C(=O)c3ccccc3C2=O)c(C)c1 [Compound A, 2-(2',4',6'-trimethylphenyl)-1,3-indandione, reference compound]
- Average mite control rating, 1st Reading (two-spotted mite; [5]): 1.0
- Average mite control rating, 2nd Reading (two-spotted mite; [6]): 1.0
- Average mite control rating, 1st Reading (two-spotted mite; [8]): 1.0
- Average mite control rating, 2nd Reading (two-spotted mite; [9]): 1.3
- Average mite control rating, 1st Reading (two-spotted mite; [10]): 2.7
- Average mite control rating, 2nd Reading (two-spotted mite; [11]): 1.7
- Average mite control rating, 1st Reading (two-spotted mite; Test III, 250 ppm, 3 days, scale 1 to 5): 1.0
- Average mite control rating, 2nd Reading (two-spotted mite; Test III, 250 ppm, 7 days, scale 1 to 5): 2.0
- Average mite control rating, 1st Reading (two-spotted mite; Test III, 500 ppm, 3 days, scale 1 to 5): 1.3
- Average mite control rating, 2nd Reading (two-spotted mite; Test III, 500 ppm, 7 days, scale 1 to 5): 1.7
- Average mite control rating, 1st Reading (two-spotted mite; Test III, 1000 ppm, 3 days, scale 1 to 5): 3.3
- Average mite control rating, 2nd Reading (two-spotted mite; Test III, 1000 ppm, 7 days, scale 1 to 5): 3.3
- Average mite control rating, 3rd Reading (two-spotted mite; Test III, 1000 ppm, 21 days, scale 1 to 5): 2.3

SMILES: O=C1c2ccccc2C(=O)C1c1c(Cl)cccc1Cl [Compound B, 2-(2',6'-dichlorophenyl)-1,3-indandione, reference compound]
- Average mite control rating, 1st Reading (two-spotted mite; [5]): 1.5
- Average mite control rating, 2nd Reading (two-spotted mite; [6]): 2.0
- Average mite control rating, 1st Reading (two-spotted mite; [8]): 3.7
- Average mite control rating, 2nd Reading (two-spotted mite; [9]): 2.3
- Average mite control rating, 1st Reading (two-spotted mite; [10]): 3.0
- Average mite control rating, 2nd Reading (two-spotted mite; [11]): 3.3
- Average mite control rating, 1st Reading (two-spotted mite; Test II, 1000 ppm, 3 days, scale 1 to 5): 2.0
- Average mite control rating, 2nd Reading (two-spotted mite; Test II, 1000 ppm, 7 days, scale 1 to 5): 3.3
